Test results taken from US12064516B2, “Pharmaceutical formulations and uses thereof” (Aldeyra Therapeutics, Inc., priority 2020, dated 2024).

Columns and labels:
[1] = Phase 1 clinical trial, single ascending dose (SAD) pharmacokinetics; format: in vivo, human; conditions: healthy volunteers; for AUC(0-inf) / Cmax / half-life: human, in vivo, po
Excerpt: Pharmacokinetic data are presented below.

[2] = human, in vivo, 10 days
Description: (§2) This Phase 1 trial was a first-in-human, randomized, double-blind, placebo-controlled trial with a 3:1 randomization of I-1 and placebo. The trial was comprised of single ascending dose (SAD) and multiple ascending dose (MAD) protocols. MAD drug exposure was 10 days of twice-per-day (BID) administration.
(§3) A total of 54 healthy volunteers were randomized across two cohorts of varying doses: 41 subjects received I-1 and 13 subjects received placebo.
(§4) Thirty-one (31) subjects were randomized to varying doses: 23 subjects received I-1 and 8 subjects received placebo.

malondialdehyde (MDA) = assay: Plasma malondialdehyde (MDA) in Phase 1 subjects administered I-1 orally; format: in vivo, human; conditions: healthy volunteers
[3] = Phase 1 clinical trial, safety and tolerability (adverse events, labs, vitals, QTcF); conditions: for subjects with TEAEs, %: subjects who received I-1
Description: as §2, §3, §4

[4] = Tolerability as a systemic dose, I-1 versus ADX-102; format: in vivo
Description: (§1) Compound I-1 is the des-chloro analog of ADX-102. […] We have therefore investigated compound I-1 in 90-day toxicology studies in rat and dog as well as 10-day studies in man. We compared two data sets to contrast the pharmacokinetics of the two test articles. A 50 mg/kg oral dose PK study of compound I-1 was conducted in Sprague-Dawley rats using methylcellulose suspension. A pharmacokinetic study of ADX-102 was also conducted in Sprague Dawley rats at a dose of 10 mg/kg in a methylcellulose suspension that also contained Tween 80. Both studies also incorporated intravenous administration in captisol for the calculation of clearance and steady state volume of distribution.

[5] = Pharmacokinetic comparison of ADX-102 (reproxalap) and compound I-1 in rats; format: in vivo, Sprague-Dawley rats; conditions: Sprague-Dawley, in vivo, SD Rat
[6] = as above; format: in vivo, Sprague-Dawley rats
Description: as §1, with “A pharmacokinetic study of ADX-102 was also conducted in Sprague Dawley rats at a dose of 10 mg/kg in a methylcellulose suspension that also contained Tween 80.” left out
Both studies were dosed by oral gavage. Bioanalysis was conducted using LC-MS/MS. Further details of the experimental approach can be found in the individual reports.

[7] = Solubility of I-1 drug substance; format: physicochemical
Excerpt: Spray-drying was selected for formulation of this compound. By co-precipitating the compound with a polymer in a stable amorphous solid dispersion, spray-drying improved the dissolution rates and enhanced the bioavailability. […] This made I-1 an appropriate candidate for the application of formulation through spray drying dispersion (SDD).

[8] = 100 mg, oral single dose 100 mg
[9] = 200 mg, oral single dose 200 mg
[10] = 400 mg, oral single dose 400 mg
[11] = 700 mg, oral single dose 700 mg
[12] = 1200 mg, oral single dose 1200 mg
[13] = SD Rat, oral gavage 50 mg/kg, 0.5% MC
[14] = Sprague-Dawley, in vivo, SD Rat, oral gavage 50 mg/kg, 0.5% MC

CC(C)(O)c1nc2ccccc2cc1N [I-1]
AUCinf ([1]; oral single dose 20 mg): 50.0 ng·h/mL
AUCinf ([1]; oral single dose 50 mg): 156 ng·h/mL
AUCinf ([1]; oral single dose 100 mg): 433 ng·h/mL
AUCinf ([1]; oral single dose 200 mg): 1140 ng·h/mL
AUCinf ([1]; oral single dose 400 mg): 2730 ng·h/mL
AUCinf ([1]; oral single dose 700 mg): 6710 ng·h/mL
AUCinf ([1]; oral single dose 1200 mg): 14500 ng·h/mL
AUC(0-inf) ([1]; 20 mg, oral single dose 20 mg): ~50 ng·h/mL
Cmax ([1]; 20 mg, oral single dose 20 mg): ~26.4 ng/mL
AUC(0-inf) ([1]; 50 mg, oral single dose 50 mg): ~156 ng·h/mL
Cmax ([1]; 50 mg, oral single dose 50 mg): ~56.7 ng/mL
AUC(0-inf) [1, 8]: ~433 ng·h/mL
Cmax [1, 8]: ~140 ng/mL
half-life [1, 8]: 3.52 h
AUC(0-inf) [1, 9]: ~1140 ng·h/mL
Cmax [1, 9]: ~459 ng/mL
half-life [1, 9]: 6.04 h
AUC(0-inf) [1, 10]: ~2730 ng·h/mL
Cmax [1, 10]: ~869 ng/mL
half-life [1, 10]: 6.15 h
AUC(0-inf) [1, 11]: ~6710 ng·h/mL
Cmax [1, 11]: ~2020 ng/mL
half-life [1, 11]: 7.33 h
AUC(0-inf) [1, 12]: ~14500 ng·h/mL
Cmax [1, 12]: ~4220 ng/mL
half-life [1, 12]: 7.69 h
Influenza like illness, N subjects [2]: 0
free MDA levels in plasma (malondialdehyde (MDA)): decrease in free MDA levels
intensity and relatedness of TEAEs ([3]; MAD): mild and deemed not to be related to the study drug
subjects with TEAEs, % ([3]; MAD): 17.4%
Pruritis, % of subjects ([3]; MAD, I-1 50 mg BID): (16.7%)
Pruritis, N subjects ([3]; MAD, I-1 50 mg BID): 1
Rhinitis, N subjects ([3]; MAD, I-1 50 mg BID): 0
URTI, N subjects ([3]; MAD, I-1 50 mg BID): 0
Headache, N subjects ([3]; MAD, I-1 150 mg BID): 0
Ligament sprain, N subjects ([3]; MAD, I-1 150 mg BID): 0
Muscle spasms, N subjects ([3]; MAD, I-1 150 mg BID): 0
Nasal congestion, % of subjects ([3]; MAD, I-1 150 mg BID): (16.7%)
Nasal congestion, N subjects ([3]; MAD, I-1 150 mg BID): 1
Pruritis, N subjects ([3]; MAD, I-1 150 mg BID): 0
Rhinitis, N subjects ([3]; MAD, I-1 150 mg BID): 0
URTI, N subjects ([3]; MAD, I-1 150 mg BID): 0
Headache, N subjects ([3]; MAD, I-1 350 mg BID): 0
Ligament sprain, N subjects ([3]; MAD, I-1 350 mg BID): 0
Muscle spasms, N subjects ([3]; MAD, I-1 350 mg BID): 0
Nasal congestion, N subjects ([3]; MAD, I-1 350 mg BID): 0
Pruritis, N subjects ([3]; MAD, I-1 350 mg BID): 0
URTI, % of subjects ([3]; MAD, I-1 350 mg BID): (20.0%)
URTI, N subjects ([3]; MAD, I-1 350 mg BID): 1
Headache, N subjects ([3]; MAD, I-1 600 mg BID): 0
Ligament sprain, N subjects ([3]; MAD, I-1 600 mg BID): 0
Muscle spasms, N subjects ([3]; MAD, I-1 600 mg BID): 0
Nasal congestion, N subjects ([3]; MAD, I-1 600 mg BID): 0
Pruritis, N subjects ([3]; MAD, I-1 600 mg BID): 0
Rhinitis, % of subjects ([3]; MAD, I-1 600 mg BID): (16.7%)
Rhinitis, N subjects ([3]; MAD, I-1 600 mg BID): 1
URTI, N subjects ([3]; MAD, I-1 600 mg BID): 0
Headache, N subjects ([3]; MAD, I-1 Total): 0
Ligament sprain, N subjects ([3]; MAD, I-1 Total): 0
Muscle spasms, N subjects ([3]; MAD, I-1 Total): 0
Nasal congestion, % of subjects ([3]; MAD, I-1 Total): (4.3%)
Nasal congestion, N subjects ([3]; MAD, I-1 Total): 1
Pruritis, % of subjects ([3]; MAD, I-1 Total): (4.3%)
Pruritis, N subjects ([3]; MAD, I-1 Total): 1
Rhinitis, % of subjects ([3]; MAD, I-1 Total): (4.3%)
Rhinitis, N subjects ([3]; MAD, I-1 Total): 1
URTI, % of subjects ([3]; MAD, I-1 Total): (4.3%)
URTI, N subjects ([3]; MAD, I-1 Total): 1
QTcF prolongation ([3]; Phase 1): did not lead to QTcF prolongation
changes in heart rate, blood pressure, respiratory rate, pulse oximetry, temperature ([3]; Phase 1): No clinically meaningful changes
changes in hepatic or renal analytes (ALT, AST, ALP, amylase, GGT, bilirubin, creatinine kinase, creatinine) ([3]; Phase 1): No clinically meaningful changes
changes in serum glucose ([3]; Phase 1): No changes
hematological changes ([3]; Phase 1): No clinically significant hematological changes
subjects with QTcF ≥500 msec or a change of ≥60 msec from baseline ([3]; Phase 1): no subjects
subjects with QTcF change of >30 msec from baseline ([3]; Phase 1, three in SAD, two in MAD): Five
interruptions or discontinuations of study drug administration ([3]; Phase 1 SAD and MAD): no interruptions or discontinuations
overall safety and tolerability ([3]; Phase 1 SAD and MAD): safe and tolerable
TEAE description ([3]; SAD, one subject in 100 mg dose cohort): syncope lasting less than a minute, moderate in intensity and deemed to be related to the study drug
TEAE description ([3]; SAD, one subject, single dose of 700 mg): sinus congestion, mild in intensity and deemed not to be related to I-1
subjects with TEAEs, % ([3]; SAD): 3.7%
subjects with treatment emergent adverse events (TEAEs), % ([3]; all subjects receiving I-1 (SAD and MAD)): 9.4%
tolerability as a systemic dose compared with ADX-102 [4]: generally better tolerated than ADX-102
clearance ([5]; intravenous data using captisol formulation): 65.8 mL/min/kg
half-life ([5]; oral gavage 50 mg/kg, 0.5% MC): 2.96 h
AUC 0-inf/Dose [6, 13]: 153
AUC 0-t/Dose [6, 13]: 146
Vd ([6]; Sprague-Dawley, in vivo, SD Rat, intravenous data using captisol formulation, read-out: Vss): 3.13 L/kg
AUC(0-inf) [6, 14]: 7670 ng·h/mL
AUC(0-t) [6, 14]: 7300 ng·h/mL
Cmax [6, 14]: 4990 ng/mL
Tmax [6, 14]: 0.32 h
dose-normalized AUC relative to ADX-102 ([6]; rats, oral, I-1 50 mg/kg vs ADX-102 10 mg/kg): approximately double
solubility in aqueous media [7]: poor solubility in aqueous media
solubility in non-polar solvents [7]: increased solubility in non-polar solvents
